Measured values reported in doi:10.1101/2023.12.04.569845, “Identification of 4-(6-((2-methoxyphenyl)amino)pyrazin-2-yl)benzoic acids as CSNK2A inhibitors with antiviral activity and improved selectivity over PIM3” (bioRxiv, 2023).
Like-named read-outs stand apart in the source and are kept apart here.

How the values were obtained:
Assay in all cases: biochemical
Design in all cases: Thermal shift (DSF, SYPRO Orange) Tm shift of recombinant kinase domains at 10 uM compound
BMX = biological target: T1, BMX (Homo sapiens, UniProt P51813)
T1 sequence (P51813 1-675): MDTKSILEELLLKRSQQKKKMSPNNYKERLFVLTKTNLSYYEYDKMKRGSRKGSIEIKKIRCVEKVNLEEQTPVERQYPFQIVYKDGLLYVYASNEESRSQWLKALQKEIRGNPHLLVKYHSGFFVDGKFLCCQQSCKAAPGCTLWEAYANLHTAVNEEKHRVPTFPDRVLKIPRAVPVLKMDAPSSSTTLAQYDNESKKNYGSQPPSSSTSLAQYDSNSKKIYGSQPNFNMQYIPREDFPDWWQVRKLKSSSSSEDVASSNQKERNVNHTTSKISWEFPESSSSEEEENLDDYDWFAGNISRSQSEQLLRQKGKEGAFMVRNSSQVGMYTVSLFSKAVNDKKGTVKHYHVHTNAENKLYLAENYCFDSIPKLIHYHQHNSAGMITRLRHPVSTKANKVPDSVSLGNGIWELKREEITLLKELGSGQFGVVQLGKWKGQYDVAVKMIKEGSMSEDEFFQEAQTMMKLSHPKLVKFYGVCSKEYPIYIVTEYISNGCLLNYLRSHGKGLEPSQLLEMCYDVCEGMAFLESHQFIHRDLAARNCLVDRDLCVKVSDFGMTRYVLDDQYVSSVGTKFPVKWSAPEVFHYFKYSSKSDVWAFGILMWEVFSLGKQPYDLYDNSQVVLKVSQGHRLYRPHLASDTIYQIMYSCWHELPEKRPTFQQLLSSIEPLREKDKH

MAP2K1 = MAP2K1 (Homo sapiens, UniProt Q02750)
MAP3K5 = biological target: T2, MAP3K5 (Homo sapiens, UniProt Q99683)
T2 sequence (Q99683 1-1374): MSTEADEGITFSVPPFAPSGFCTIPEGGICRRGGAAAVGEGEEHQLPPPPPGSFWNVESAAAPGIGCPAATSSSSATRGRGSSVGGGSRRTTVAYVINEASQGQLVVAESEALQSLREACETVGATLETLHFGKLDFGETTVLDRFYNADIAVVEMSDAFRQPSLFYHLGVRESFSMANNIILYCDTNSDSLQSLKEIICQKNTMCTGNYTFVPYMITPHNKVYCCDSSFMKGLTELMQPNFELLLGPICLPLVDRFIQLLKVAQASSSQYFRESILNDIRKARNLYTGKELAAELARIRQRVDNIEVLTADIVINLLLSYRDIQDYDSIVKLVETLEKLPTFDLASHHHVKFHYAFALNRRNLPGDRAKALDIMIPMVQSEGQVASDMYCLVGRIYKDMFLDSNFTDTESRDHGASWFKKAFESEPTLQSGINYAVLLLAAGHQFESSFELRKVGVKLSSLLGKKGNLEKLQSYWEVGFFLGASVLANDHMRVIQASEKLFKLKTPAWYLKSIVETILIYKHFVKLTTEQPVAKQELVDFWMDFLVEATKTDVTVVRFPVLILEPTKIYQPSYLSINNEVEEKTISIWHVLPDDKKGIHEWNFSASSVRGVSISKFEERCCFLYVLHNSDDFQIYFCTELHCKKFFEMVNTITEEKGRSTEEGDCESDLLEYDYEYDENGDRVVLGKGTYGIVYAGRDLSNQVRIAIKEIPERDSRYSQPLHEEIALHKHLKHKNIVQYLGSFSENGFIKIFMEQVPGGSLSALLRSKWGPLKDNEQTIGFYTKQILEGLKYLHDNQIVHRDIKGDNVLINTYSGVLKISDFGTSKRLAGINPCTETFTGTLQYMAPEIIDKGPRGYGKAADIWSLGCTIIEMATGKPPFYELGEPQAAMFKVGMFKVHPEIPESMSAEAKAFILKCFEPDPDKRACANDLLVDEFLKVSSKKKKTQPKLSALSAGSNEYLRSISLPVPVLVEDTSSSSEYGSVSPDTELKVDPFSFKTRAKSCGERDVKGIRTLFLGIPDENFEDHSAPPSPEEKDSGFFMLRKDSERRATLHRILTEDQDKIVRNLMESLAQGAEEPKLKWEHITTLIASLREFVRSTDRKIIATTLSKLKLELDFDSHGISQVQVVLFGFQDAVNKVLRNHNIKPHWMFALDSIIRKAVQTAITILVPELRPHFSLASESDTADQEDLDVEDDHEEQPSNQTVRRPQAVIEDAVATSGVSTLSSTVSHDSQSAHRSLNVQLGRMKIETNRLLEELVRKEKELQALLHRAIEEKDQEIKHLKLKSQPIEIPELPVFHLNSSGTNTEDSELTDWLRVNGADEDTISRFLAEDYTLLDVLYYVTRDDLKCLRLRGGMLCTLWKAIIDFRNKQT

MAP2K1, sequence (Q02750 whole entry): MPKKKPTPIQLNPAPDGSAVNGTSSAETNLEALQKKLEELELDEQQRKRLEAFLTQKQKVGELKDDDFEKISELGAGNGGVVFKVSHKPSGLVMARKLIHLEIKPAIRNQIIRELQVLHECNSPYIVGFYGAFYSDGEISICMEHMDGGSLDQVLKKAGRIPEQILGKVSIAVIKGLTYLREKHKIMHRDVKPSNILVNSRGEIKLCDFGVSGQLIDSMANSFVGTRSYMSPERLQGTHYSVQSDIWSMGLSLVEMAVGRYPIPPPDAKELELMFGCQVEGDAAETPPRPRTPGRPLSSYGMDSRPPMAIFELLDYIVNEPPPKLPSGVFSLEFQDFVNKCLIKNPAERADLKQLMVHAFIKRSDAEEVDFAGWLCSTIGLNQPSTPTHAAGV

Work on `CC(C)Nc1ccc2cnn(-c3cncc(-c4ccc(C(=O)O)cc4)n3)c2c1` [compound 2, 2] yielded a ΔTm at 10 µM (BMX; read-out: 2) of 3 °C, a ΔTm at 10 µM (MAP2K1; read-out: 2) of 2 °C and a ΔTm at 10 µM (MAP3K5; read-out: 2) of 5 °C.
In the case of `COc1ccc(OC(C)C)cc1Nc1cncc(-c2ccc(C(=O)O)cc2)n1` [7c], the ΔTm at 10 µM (BMX; read-out: 7c) is reported as 1 °C, the ΔTm at 10 µM (MAP2K1; read-out: 7c) is reported as 1 °C and the ΔTm at 10 µM (MAP3K5; read-out: 7c) is reported as 1 °C.
Work on `CC(C)Oc1ccc2ccn(-c3cncc(-c4ccc(C(=O)O)cc4)n3)c2c1` [6c] yielded a ΔTm at 10 µM (BMX; read-out: 6c) of 2 °C, a ΔTm at 10 µM (MAP2K1; read-out: 6c) of 1 °C and a ΔTm at 10 µM (MAP3K5; read-out: 6c) of 3 °C.
